The values that follow come from patent US5780509A, “Compound bearing two, 2,6-diiodophenol-4-YL groups and diagnostic drug for iodine allergy” (Muromachi Kagaku Kogyo Kaisha, Ltd., priority 1994, dated 1998).

Assay [1] concerns guinea-pigs immunized with iodine (iodine-sensitized) and non-sensitized guinea-pigs. As to the kind of experiment: Active cutaneous anaphylaxis (ACA) reaction, elicitation antigenicity. It is filed as in vivo, guinea-pig (male SPF, Hartley strain). On the set-up: key to Mean diameter of blue spots, non-sensitized guinea-pig / Mean diameter of blue spots, iodine-sensitized guinea pig (second value) / Mean diameter of blue spots, iodine-sensitized guinea pig (first value): --: Negative response; **: Weak response. The note with it: for Mean diameter of blue spots, iodine-sensitized guinea pig (first value) / Mean diameter of blue spots, iodine-sensitized guinea pig (second value) / Mean diameter of blue spots, non-sensitized guinea-pig: 30 min; for ACA reaction (in words): intradermal injection, guinea-pigs sensitized with iodine. The source says:
The elicitation antigenicity of iodinated tyrosine derivatives was studied in the bases of the active cutaneous anaphylaxis (ACA) reaction in guinea-pigs immunized with iodine.
Animals: Male SPF guinea-pigs of Hartley strain, weighing 300~350 g were purchased from Charles River Japan Co., Ltd. These were immunized after having been acclimated for one week.
Sensitization: A solution of iodine potassium iodide (Wako Junyaku, special grade reagent) and complete Freund's adjuvant (Difco) were mixed in equal amounts to form an emulsion. This was administered subcutaneously into the back of guinea-pigs at a dose of 2 mg of iodine per animal 3 times at intervals of 2 weeks. Active cutaneous anaphylaxis (ACA) was elicited 2 weeks after the last sensitization injection.
ACA Induction: 2% Evans blue physiological solution (0.5 ml/animal) was administered intravenously to guinea-pigs, and immediately thereafter 0.1 ml of an elicitation antigen was administered intradermally into the back, and after 30 min. the existence of pigment leakage at the intradermally injected sites was observed.
Elicitation antigen: Iodinated dityrosine, iodinated trityrosine, iodinated dityrosylphenylalanine were administered intracutaneously at 0.1 ml/site. Guinea-pig serum albumin (fraction V: Sigma) was iodinated and used as a positive control. Corresponding noniodinated ones were also administered intradermally as negative controls.
Iodination reaction: To a 50 mM boric acid buffer solution (pH 9.5) of 10 mg/ml of dityrosine, trityrosine, or dityrosylphenylalanine (all produced by Sigma Co., Ltd.) or guinea-pig serum albumin (abbreviated hereafter as GSA), a 0.5M solution of iodine was added at a ratio of 10:1, and these were reacted at 37 C. overnight. The excess iodine in the reaction mixture was reduced by adding sodium thiosulfate (Nakarai Chemical Co., Ltd.). For purification of the iodinated tyrosine derivatives, the reaction mixture was extracted with ethyl acetate and dried with magnesium sulfate, and hexane was added to obtain crystals. For purification of the iodinated GSA, the reaction mixture was purified by passing it through a Sephadex G25 column.

Assay [2] concerns anti-iodine antibody. As to the kind of experiment: ELISA inhibition on anti-iodine antibody (single concentration). It is filed as binding, guinea-pig. Set-up: key to ELISA inhibitory activity, judgment: +: a compound had inhibitory activity; -: a compound did not have inhibitory activity. The method, then: (§1) Guinea-pigs were immunized with iodine by injecting subcutaneously 1 mg of iodine containing potassium iodide solution treated with complete Freund's adjuvant seven times at intervals of 2 weeks, and anti-iodine antiserum was obtained from these animals. Antibody titers of the sera were determined by enzyme linked immunosorbent assay (ELISA) using 96 well microplate coated with iodinated guinea pig serum albumin (I-GSA) ELISA inhibition activities of the following compounds were studied. The compounds used were potassium iodide, tyrosine and its derivatives such as L-tyrosine, monoiodo-L-tyrosine, diiodotyrosine, hexaiodo-L-trityrosine, L-hexatyrosine and 12 iodo-L-hexatyrosine, and iodinated X-ray contrast media such as amidotrizoic acid, iodamide, ioxaglic acid, iohexol, iopamidol and iomeprol.
(§2) ELISA inhibition study was performed as follows. Antibody concentration of anti-iodine antiserum gave the maximum optical density in ELISA till one hundredfold serum dilution. Accordingly, seven steps of twofold serial dilution of anti-iodine antiserum, starting from 50-fold serum dilution, were made with physiological saline as a diluent. To each of the serially diluted sera, were added equal volume of solution containing each of the test compounds described above. After overnight incubation at 4 C, antibody activity was determined by ELISA. Phosphate buffered physiological saline (PBS) was used as a control. ELISA inhibitory activities of the test compounds were determined at the serum dilution which gave about 50% of the maximum optical density (OD415nm =2.6) of ELISA of control at serum dilution of one hundredfold. The inhibitory activity was calculated by the following calculation formula.
Inhibition rate=[1-Optical density under test compouund/Optical density
On the technique in general: ELISA stands for enzyme-linked immunosorbent assay.

Assay [3] has as its system anti-iodine antibody. Put plainly: ELISA inhibition potency (OD50) on anti-iodine antibody. The note with it: serial twofold dilution, equal volume of 50-fold diluted anti-iodine antiserum; read-out: Inhibitory activity (OD50): concentration which decreased optical density of ELISA to a half of the control. It counts as binding, guinea-pig. On the procedure:
as §1, §2
In the next, ELISA inhibition study was undertaken to determine the potency of ELISA inhibitory activity of active compounds. […] The inhibitory activity was expressed as the concentration which decreased optical density of ELISA to a half (OD50) of the control.

Non-standard residues stand in square brackets, D forms with d. Residues, ends and D or L forms follow the SMILES beside them. No end group written: not given here. Tyr(3,5-I2) = N[C@@H](Cc1cc(I)c(O)c(I)c1)C(=O)O

For the compound `N[C@@H](Cc1cc(I)c(O)c(I)c1)C(=O)N[C@@H](Cc1cc(I)c(O)c(I)c1)C(=O)O` (H-[Tyr(3,5-I2)]-[Tyr(3,5-I2)]-OH), in assay [1] (1 μg/site intradermal), the “Mean diameter of blue spots, iodine-sensitized guinea pig (first value)” value (“Mean diameter of blue spots … (first value)” for short) was “--”; the “Mean diameter of blue spots, iodine-sensitized guinea pig (second value)” value (“Mean diameter of blue spots … (second value)” below) is on record as “--”; the “Mean diameter of blue spots, non-sensitized guinea-pig” value was “--”. Further, in assay [1] (10 μg/site intradermal), the “Mean diameter of blue spots … (first value)” value amounted to 5.0 mm; the “Mean diameter of blue spots … (second value)” value was “--”; the “Mean diameter of blue spots, non-sensitized guinea-pig” value is given as “--”. Also, in assay [1] (100 μg/site intradermal), the “Mean diameter of blue spots … (first value)” value came to 7.0 mm; the “Mean diameter of blue spots … (second value)” value worked out at 5.0 mm; the “Mean diameter of blue spots, non-sensitized guinea-pig” value is “--”. Also, the “ACA reaction (in words)” value in assay [1] is “ACA reaction was elicited”.
`N[C@@H](Cc1cc(I)c(O)c(I)c1)C(=O)N[C@@H](Cc1cc(I)c(O)c(I)c1)C(=O)N[C@@H](Cc1cc(I)c(O)c(I)c1)C(=O)N[C@@H](Cc1cc(I)c(O)c(I)c1)C(=O)N[C@@H](Cc1cc(I)c(O)c(I)c1)C(=O)N[C@@H](Cc1cc(I)c(O)c(I)c1)C(=O)O` [12 iodo-L-hexatyrosine] (H-[Tyr(3,5-I2)][Tyr(3,5-I2)][Tyr(3,5-I2)][Tyr(3,5-I2)][Tyr(3,5-I2)][Tyr(3,5-I2)]-OH): in the assay on anti-iodine antibody [2] (1 mM), the ELISA inhibition rate was 94.3% and the “ELISA inhibitory activity, judgment” value is given as “+”. Moreover, the IC50 in the assay with anti-iodine antibody [3] came out at 125 µM.
Turning to `CC(=O)Nc1c(I)c(NC(C)=O)c(I)c(C(=O)O)c1I` [Amidotrizoic acid], in the assay on anti-iodine antibody [2] (10 mM), the ELISA inhibition rate came to 0.3% and the “ELISA inhibitory activity, judgment” value is reported as “-”.
Take `N[C@@H](Cc1cc(I)c(O)c(I)c1)C(=O)O` [Diiodo-L-tyrosine]: in the assay on anti-iodine antibody [2] (10 mM), the ELISA inhibition rate is listed as 100% and the “ELISA inhibitory activity, judgment” value is given as “+”. For the same compound, the IC50 with anti-iodine antibody [3] was 5000 µM.
For `N[C@@H](Cc1ccc(O)cc1)C(=O)N[C@@H](Cc1ccc(O)cc1)C(=O)N[C@@H](Cc1ccccc1)C(=O)O` [Dityrosylphenylalanine, L-tyrosyl-L-tyrosylphenylalanine, reference compound] (H-Tyr-Tyr-Phe-OH), in assay [1] (1000 μg/site intradermal), the “Mean diameter of blue spots … (first value)” value is “--”; the “Mean diameter of blue spots … (second value)” value is given as “--”; the “Mean diameter of blue spots, non-sensitized guinea-pig” value was “--”.
In the case of `CC(=O)NCc1c(I)c(NC(C)=O)c(I)c(C(=O)O)c1I` [Iodamide], in the assay on anti-iodine antibody [2] (10 mM), the ELISA inhibition rate was 3.5% and the “ELISA inhibitory activity, judgment” value is “+”.
As for `N[C@@H](Cc1cc(I)c(O)c(I)c1)C(=O)N[C@@H](Cc1cc(I)c(O)c(I)c1)C(=O)N[C@@H](Cc1ccccc1)C(=O)O` [Iodinated dityrosylphenylalanine] (H-[Tyr(3,5-I2)]-[Tyr(3,5-I2)]-Phe-OH), the figures for the “Mean diameter of blue spots … (first value)” value in assay [1] (1 μg/site intradermal), in assay [1] (10 μg/site intradermal) and in assay [1] (100 μg/site intradermal) were “--”, 7.0 mm and 8.0 mm, respectively. Also, the “Mean diameter of blue spots … (second value)” value is “--” in assay [1] (1 μg/site intradermal), “--” in assay [1] (10 μg/site intradermal) and 3.0 mm in assay [1] (100 μg/site intradermal). Besides, the “Mean diameter of blue spots, non-sensitized guinea-pig” value in assay [1] (1 μg/site intradermal), in assay [1] (10 μg/site intradermal) and in assay [1] (100 μg/site intradermal) was “--” each time. The “ACA reaction (in words)” value in assay [1] is “ACA reaction was elicited”.
Consider `CC(=O)N(CC(O)CO)c1c(I)c(C(=O)NCC(O)CO)c(I)c(C(=O)NCC(O)CO)c1I` (stereo not shown) [Iohexol], for which, in the assay on anti-iodine antibody [2] (10 mM), the ELISA inhibition rate is -5.0% and the “ELISA inhibitory activity, judgment” value is “+”.
The matching figures for `CN(C(=O)CO)c1c(I)c(C(=O)NCC(O)CO)c(I)c(C(=O)NCC(O)CO)c1I` (stereo not shown) [Iomeprol]: -1.8% and “+”.
Taken in the same sequence, the figures for `C[C@H](O)C(=O)Nc1c(I)c(C(=O)NC(CO)CO)c(I)c(C(=O)NC(CO)CO)c1I` [Iopamidol] were -6.5% and “+”.
The matching figures for `CNC(=O)c1c(I)c(C(=O)NCC(=O)Nc2c(I)c(C(=O)O)c(I)c(C(=O)NCCO)c2I)c(I)c(N(C)C(C)=O)c1I` [Ioxaglic acid]: -9.4% and “+”.
On to `N[C@@H](Cc1ccc(O)cc1)C(=O)O` [L-Tyrosine], for which, in the assay with anti-iodine antibody [2] (10 mM), the ELISA inhibition rate is given as -2.6% and the “ELISA inhibitory activity, judgment” value is on record as “-”.
The matching figures for `N[C@@H](Cc1ccc(O)c(I)c1)C(=O)O` [Monoiodo-L-tyrosine]: 5.6% and “-”.
The matching figures for `[I-].[K+]` [Potassium iodide]: 0% and “-”.
Take `N[C@@H](Cc1ccc(O)cc1)C(=O)N[C@@H](Cc1ccc(O)cc1)C(=O)N[C@@H](Cc1ccc(O)cc1)C(=O)O` [Trityrosine, trityrosine, reference compound] (H-Tyr-Tyr-Tyr-OH): in assay [1] (1000 μg/site intradermal), the “Mean diameter of blue spots … (first value)” value is reported as “--”; the “Mean diameter of blue spots … (second value)” value is listed as “--”; the “Mean diameter of blue spots, non-sensitized guinea-pig” value is on record as “--”.
On to `N[C@@H](Cc1ccc(O)cc1)C(=O)N[C@@H](Cc1ccc(O)cc1)C(=O)O` [reference compound] (H-Tyr-Tyr-OH), for which, in assay [1] (1000 μg/site intradermal), the “Mean diameter of blue spots … (first value)” value is recorded as “--”; the “Mean diameter of blue spots … (second value)” value is recorded as “--”; the “Mean diameter of blue spots, non-sensitized guinea-pig” value is “--”.
In the case of YYYYYY [L-Hexatyrosine], in the assay with anti-iodine antibody [2] (1 mM), the ELISA inhibition rate is 0% and the “ELISA inhibitory activity, judgment” value is listed as “-”.
